Measured values as given in patent publication US20260232767A1, “INTERLEUKIN-23 RECEPTOR ANTAGONIST PEPTIDES FOR USE IN THE TREATMENT OF PSORIASIS” (Janssen Pharmaceutica NV, priority 2023, published 2026).

System: subjects with moderate-to-severe plaque psoriasis
Test: PASI response, Example 1 16-week dose-ranging study
Assay type: in vivo, human
Settings: for Subjects achieving PASI 75: Week 4
Method: The Psoriasis Area and Severity Index (PASI) is a system used for assessing and grading the severity of psoriatic lesions and their response to therapy. In the PASI system, the body is divided into four regions: the head, trunk, upper extremities, and lower extremities. Each of these areas is assessed and scored separately for erythema, induration, and scaling, which are each rated on a scale of 0 to 4 and extent of involvement on a scale of 0 to 6. The PASI produces a numeric score (a “PASI score”) that can range from 0 to 72. A higher score indicates more severe disease.
This was a randomized, double-blind, placebo-controlled, dose-ranging, parallel group, multicenter, interventional study in subjects with moderate-to-severe plaque psoriasis. A target of 240 subjects were enrolled in this study with 40 subjects planned per intervention group.
Clinician-reported outcomes including Psoriasis Area and Severity Index (PASI), Body Surface Area (BSA), Investigator's Global Assessment (IGA), Nail Psoriasis Area and Severity Index (NAPSI), Fingernail Physician's Global Assessment (f-PGA), Static Physician's Global Assessment of Genitalia (s-PGA-G), Physician's Global Assessment of Hands and/or Feet (hf-PGA), and Scalp Specific Investigator Global Assessment (ss-IGA) were obtained at Week 0, 8, and 16. PASI and IGA were also obtained at Weeks 1, 2, 4, and 12, and at Week 20, four weeks after the administration of the tablets has stopped.
The primary efficacy endpoint was the proportion of participants achieving a PASI 75 response at Week 16, defined as at least a 75% reduction from baseline in PASI total score.
For the primary analysis, composite strategy (non-responder imputation) was applied to address intercurrent event #1 (Discontinuation of study intervention due to lack of efficacy or due to an AE of worsening of psoriasis) and #2 (initiation of a protocol-prohibited medication or therapy that could improve psoriasis); and treatment policy strategy (observed data) was applied to intercurrent event #3 (Discontinuation of study intervention due to other reasons). Participants with missing data after application of ICEs are also considered as non-responders.
In addition to the response analysis, pairwise comparisons of each treatment group versus the placebo group were performed for the primary endpoint of PASI 75 at Week 16. Pairwise comparisons were not adjusted for multiplicity. The Cochran-Mantel-Haenszel chi-square statistic stratified by baseline weight category (≤90 kg, >90 kg) at a 2-sided significance level of 0.05 was used (Table 2).

[1] = 25 mg QD, Week 16, trough plasma conc ≥Q3
[2] = 50 mg QD, Week 16, peak plasma conc. <Q1, N=2
[3] = 50 mg QD, Week 16, peak plasma conc. Q1 to <Q2, N=2
[4] = 50 mg QD, Week 16, peak plasma conc. Q2 to <Q3, N=2
[5] = 50 mg QD, Week 16, peak plasma conc. ≥Q3, N=2
[6] = 50 mg QD, Week 16, trough plasma conc <Q1
[7] = 50 mg QD, Week 16, trough plasma conc Q1 to <Q2
[8] = 50 mg QD, Week 16, trough plasma conc Q2 to <Q3
[9] = 50 mg QD, Week 16, trough plasma conc ≥Q3
[10] = 100 mg BID, Week 16, peak plasma conc. <Q1, N=2
[11] = 100 mg BID, Week 16, peak plasma conc. Q1 to <Q2, N=3
[12] = 100 mg BID, Week 16, peak plasma conc. Q2 to <Q3, N=2
[13] = 100 mg BID, Week 16, peak plasma conc. ≥Q3, N=3
[14] = 100 mg BID, Week 16, trough plasma conc <Q1

SMILES: CC(=O)NCCCC[C@@H]1NC(=O)[C@H](Cc2c[nH]c3c(C)cccc23)NC(=O)[C@H]([C@@H](C)O)NC(=O)[C@H](CC(N)=O)NC(=O)[C@@H](NC(C)=O)C(C)(C)SSC(C)(C)[C@@H](C(=O)N[C@@H](Cc2ccc(OCCN)cc2)C(=O)N[C@@H](Cc2ccc3ccccc3c2)C(=O)NC2(C(=O)N[C@@H](CCC(=O)O)C(=O)N[C@@H](CC(N)=O)C(=O)N[C@@H](Cc3cccnc3)C(=O)N(C)CC(N)=O)CCOCC2)NC1=O [IL-23 receptor antagonist peptide, Ac-[Pen]*-N-T-[W(7-Me)]-[Lys(Ac)]-[Pen]*-Phe[4-(2-aminoethoxy)]-[2-Nal]-[THP]-E-N-[3-Pal]-Sarc-NH2 (*[Pen]-[Pen]* formdisulfidebond)]
- PASI 100% Improvement, subjects [1]: 1 (16.7%)
- PASI ≥75% Improvement, subjects [1]: 3 (50.0%)
- PASI ≥90% Improvement, subjects [1]: 1 (16.7%)
- Subjects achieving PASI 75 (50 mg QD): 16.3%
- PASI 75 treatment difference vs placebo (50 mg QD, Week 16): 48.8%
- PASI 90 treatment difference vs placebo (50 mg QD, Week 16): 48.8% (33.3%,
- PASI 100 treatment difference vs placebo (50 mg QD, Week 16): 25.6% (12.7%,
- Subjects achieving PASI 90 (50 mg QD, Week 16): 22 (51.2%)
- Subjects achieving PASI 100 (50 mg QD, Week 16): 11 (25.6%)
- PASI 75, % (50 mg QD, Week 16, N=43): 58.1%
- PASI 90, % (50 mg QD, Week 16, N=43): 51.2%
- PASI 100, % (50 mg QD, Week 16, N=43): 25.6%
- PASI 100% Improvement, n subjects [2]: 0
- PASI ≥75% Improvement, % subjects [2]: (50.0%)
- PASI ≥75% Improvement, n subjects [2]: 1
- PASI ≥90% Improvement, n subjects [2]: 0
- PASI 100% Improvement, % subjects [3]: (50.0%)
- PASI 100% Improvement, n subjects [3]: 1
- PASI ≥75% Improvement, % subjects [3]: (100.0%)
- PASI ≥75% Improvement, n subjects [3]: 2
- PASI ≥90% Improvement, % subjects [3]: (100.0%)
- PASI ≥90% Improvement, n subjects [3]: 2
- PASI 100% Improvement, n subjects [4]: 0
- PASI ≥75% Improvement, % subjects [4]: (50.0%)
- PASI ≥75% Improvement, n subjects [4]: 1
- PASI ≥90% Improvement, % subjects [4]: (50.0%)
- PASI ≥90% Improvement, n subjects [4]: 1
- PASI 100% Improvement, n subjects [5]: 0
- PASI ≥75% Improvement, % subjects [5]: (100.0%)
- PASI ≥75% Improvement, n subjects [5]: 2
- PASI ≥90% Improvement, % subjects [5]: (100.0%)
- PASI ≥90% Improvement, n subjects [5]: 2
- PASI 100% Improvement, subjects [6]: 1 (20.0%)
- PASI ≥75% Improvement, subjects [6]: 2 (40.0%)
- PASI ≥90% Improvement, subjects [6]: 1 (20.0%)
- PASI 100% Improvement, subjects [7]: 2 (40.0%)
- PASI ≥75% Improvement, subjects [7]: 3 (60.0%)
- PASI ≥90% Improvement, subjects [7]: 3 (60.0%)
- PASI 100% Improvement, subjects [8]: 2 (40.0%)
- PASI ≥75% Improvement, subjects [8]: 3 (60.0%)
- PASI ≥90% Improvement, subjects [8]: 2 (40.0%)
- PASI 100% Improvement, subjects [9]: 1 (20.0%)
- PASI ≥75% Improvement, subjects [9]: 3 (60.0%)
- PASI ≥90% Improvement, subjects [9]: 3 (60.0%)
- Subjects achieving PASI 75 (100 mg BID): 23.8%
- Subjects achieving PASI 100 (100 mg BID, Week 8): 11.9%
- PASI 75 treatment difference vs placebo (100 mg BID, Week 16): 69.4%
- PASI 90 treatment difference vs placebo (100 mg BID, Week 16): 57.3% (42.0%,
- PASI 100 treatment difference vs placebo (100 mg BID, Week 16): 40.5% (25.8%,
- Subjects achieving PASI 90 (100 mg BID, Week 16): (59.5%)
- PASI 75, % (100 mg BID, Week 16, N=42): 78.6%
- PASI 90, % (100 mg BID, Week 16, N=42): 59.5%
- PASI 100, % (100 mg BID, Week 16, N=42): 40.5%
- PASI 100% Improvement, % subjects [10]: (50.0%)
- PASI 100% Improvement, n subjects [10]: 1
- PASI ≥75% Improvement, n subjects [10]: 2
- PASI ≥90% Improvement, % subjects [10]: (100.0%)
- PASI ≥90% Improvement, n subjects [10]: 2
- PASI 100% Improvement, % subjects [11]: (33.3%)
- PASI 100% Improvement, n subjects [11]: 1
- PASI ≥75% Improvement, n subjects [11]: 3
- PASI ≥90% Improvement, % subjects [11]: (100.0%)
- PASI ≥90% Improvement, n subjects [11]: 3
- PASI 100% Improvement, % subjects [12]: (50.0%)
- PASI 100% Improvement, n subjects [12]: 1
- PASI ≥75% Improvement, n subjects [12]: 1
- PASI ≥90% Improvement, % subjects [12]: (50.0%)
- PASI ≥90% Improvement, n subjects [12]: 1
- PASI 100% Improvement, % subjects [13]: (66.7%)
- PASI 100% Improvement, n subjects [13]: 2
- PASI ≥75% Improvement, n subjects [13]: 3
- PASI ≥90% Improvement, % subjects [13]: (66.7%)
- PASI ≥90% Improvement, n subjects [13]: 2
- PASI 100% Improvement, subjects [14]: 1 (25.0%)
- PASI ≥75% Improvement, subjects [14]: 3 (75.0%)
- PASI ≥90% Improvement, subjects [14]: 50.0%
